Measured values reported in patent publication US8426447B2, “Spiro-tricyclic ring compounds as beta-secretase modulators and methods of use” (Amgen Inc., priority 2008, dated 2013).
One block for each compound: values may come before it.

Legend:
BACE1 [1] = target: T1, BACE1 (Homo sapiens, UniProt P56817); experiment: In Vitro BACE Cell-based Assay (HEK cell assay): Aβ40 in conditioned medium of cells stably expressing Amyloid Precursor Protein, sandwich ELISA
Procedure, shortened: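 HEK cells stably expressing APP were treated 24 h with compound in 10-point dose response starting at 100 or 10 μM (0.1% DMSO). Secreted Aβ40 quantified by sandwich ELISA (pAb40 capture, biotinylated 6E10 detection, europium time-resolved fluorescence), with IC50 derived from percent inhibition versus concentration.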

BACE1 [2] = target: T1, BACE1; experiment: In Vitro Enzymatic BACE FRET (Fluorescence Resonance Energy Transfer) Assay; format: biochemical
Procedure, shortened: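 First, compound and enzyme sit in 0.05 M acetate (pH 4.2, 10% DMSO final, 100 uM nonionic genapol). Next, 50 nM quenched FRET peptide starts the reaction for one hour. Last, Tris neutralises the mixture before fluorescence is measured.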

[3] = Table IV, class symbols, read-out: HEK cell assay
[4] = Table IV, class symbols, read-out: BACE1 FRET assay
[5] = Table III, IC50's in uM ranges, read-out: HEK cell assay
[6] = Table III, IC50's in uM ranges, read-out: BACE1 FRET assay
[7] = HEK cell-based assay, Aβ40 in conditioned medium, IC50 class symbols, read-out: HEK cell assay
[8] = in vitro BACE FRET enzyme assay, IC50 class symbols, read-out: BACE1 FRET assay

T1 sequence (P56817 46-501, species assumed): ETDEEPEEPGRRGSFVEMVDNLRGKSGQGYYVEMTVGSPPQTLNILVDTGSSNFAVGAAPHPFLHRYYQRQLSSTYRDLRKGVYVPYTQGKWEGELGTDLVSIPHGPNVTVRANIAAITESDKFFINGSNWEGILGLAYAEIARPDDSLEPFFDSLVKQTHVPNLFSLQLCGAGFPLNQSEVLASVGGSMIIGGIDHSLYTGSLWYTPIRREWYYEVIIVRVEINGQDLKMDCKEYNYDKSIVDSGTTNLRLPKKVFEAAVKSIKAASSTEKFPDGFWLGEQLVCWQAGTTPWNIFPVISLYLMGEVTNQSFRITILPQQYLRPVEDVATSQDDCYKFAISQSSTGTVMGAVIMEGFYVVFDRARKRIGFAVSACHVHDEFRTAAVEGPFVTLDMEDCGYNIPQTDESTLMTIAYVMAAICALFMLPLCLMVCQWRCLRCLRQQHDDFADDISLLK

SMILES: CC(C)(C)C#Cc1ccc2c(c1)[C@@]1(COC(N)=N1)c1cc(-c3cccnc3)cnc1O2 [compound 895]
IC50 (BACE1 [1]; [3]): < 0.1 µM
IC50 (BACE1 [2]; [4]): < 0.1 µM

SMILES: CC(C)(C)c1nc(-c2ccc3c(c2)[C@]2(COC(N)=N2)c2cc(-c4cccnc4)ccc2O3)cs1 [compound 622]
IC50 (BACE1 [1]; [3]): 0.1 to 1 µM
IC50 (BACE1 [2]; [4]): < 0.1 µM

SMILES: NC1=N[C@@]2(CO1)c1cc(-c3cccnc3N3CCOCC3)ccc1Oc1ccc(N3CCOCC3)cc12 [compound 391]
IC50 (BACE1 [1]; [7]): 1 to 5 µM
IC50 (BACE1 [2]; [8]): 0.1 to 1 µM

SMILES: CC(C)(C#N)COc1ccc2c(c1)[C@]1(COC(N)=N1)c1cc(-c3cccnc3)cnc1O2 [compound 168]
IC50 (BACE1 [1]; [5]): < 0.1 µM
IC50 (BACE1 [2]; [6]): < 0.1 µM

SMILES: CC(C)NC(=O)c1ccc2c(c1)[C@@]1(COC(N)=N1)c1cc(OCC(C)(C)C)ccc1O2 [compound 703]
IC50 (BACE1 [1]; read-out: HEK cell assay): < 0.1 µM
IC50 (BACE1 [2]; read-out: BACE1 FRET assay): < 0.1 µM

SMILES: CC(C)(C)C#Cc1cnc2c(c1)[C@]1(COC(N)=N1)c1cc(-c3cnccn3)ccc1O2 [compound 654]
IC50 (BACE1 [1]; [3]): < 0.1 µM
IC50 (BACE1 [2]; [4]): < 0.1 µM

SMILES: COc1cccc(-c2ccc3c(c2)C2(COC(N)=N2)c2ccc(C)cc2O3)c1F (centres unmarked) [Example 30, 2′-(2-fluoro-3-methoxyphenyl)-6′-methylspiro[1,3-oxazole-4,9′-xanthen]-2-amine]
IC50 (BACE1 [1]; Table 1, Aβ40, 24 h incubation, read-out: HEK cell assay): > 5 µM
IC50 (BACE1 [2]; Table 1, read-out: BACE1 FRET assay): > 5 µM

SMILES: CC(C)(C#N)COc1cc2c(cc1F)Oc1ccc(-c3cccnc3)cc1[C@@]21COC(N)=N1 [compound 547]
IC50 (BACE1 [1]; [3]): < 0.1 µM
IC50 (BACE1 [2]; [4]): < 0.1 µM

SMILES: COc1cc(F)c2c(c1)[C@@]1(COC(N)=N1)c1cc(-c3cncnc3)cnc1O2 [compound 585]
IC50 (BACE1 [1]; [3]): > 5 µM
IC50 (BACE1 [2]; [4]): > 5 µM

SMILES: COC(C)(C)C#Cc1cnc2c(c1)[C@@]1(COC(N)=N1)c1cc(-c3cnccn3)ccc1O2 [compound 694]
IC50 (BACE1 [1]; read-out: HEK cell assay): > 5 µM
IC50 (BACE1 [2]; read-out: BACE1 FRET assay): 1 to 5 µM

SMILES: NC1=N[C@@]2(CO1)c1cc(-c3cccnc3F)ccc1Oc1ccc(-c3ccncc3)nc12 [compound 402]
IC50 (BACE1 [1]; [7]): < 0.1 µM
IC50 (BACE1 [2]; [8]): < 0.1 µM

SMILES: NC1=N[C@@]2(CO1)c1cc(-c3cccnc3F)ccc1Oc1cnc(-c3ccccn3)cc12 [compound 516]
IC50 (BACE1 [1]; HEK cell assay (uM), HEK cells): < 0.1 µM
IC50 (BACE1 [2]; BACE1 FRET assay (uM)): < 0.1 µM

SMILES: NC1=N[C@]2(CO1)c1cc(C(=O)CCCO)ccc1Oc1ccc(-c3cccnc3)cc12 [compound 650]
IC50 (BACE1 [1]; [3]): 0.1 to 1 µM
IC50 (BACE1 [2]; [4]): < 0.1 µM

SMILES: CC(C)(C)COc1cnc2c(c1)[C@]1(COC(N)=N1)c1cc(-c3cncc(F)c3)ccc1O2 [compound 389]
IC50 (BACE1 [1]; [7]): < 0.1 µM
IC50 (BACE1 [2]; [8]): < 0.1 µM

SMILES: Cn1cc(-c2cc3c(cn2)Oc2ccc(-c4cccnc4F)cc2[C@@]32COC(N)=N2)cn1 [compound 333]
IC50 (BACE1 [1]; [7]): < 0.1 µM
IC50 (BACE1 [2]; [8]): < 0.1 µM

SMILES: CC(C)(C)COc1ccc2c(c1)[C@@]1(COC(N)=N1)c1cc(-c3cccnc3F)cnc1O2 [compound 952]
IC50 (BACE1 [1]; read-out: HEK cell assay): < 0.1 µM
IC50 (BACE1 [2]; read-out: BACE1 FRET assay): < 0.1 µM

SMILES: NC1=N[C@@]2(CO1)c1cc(-c3ccc(F)nc3)ccc1Oc1cnc(-c3ccc(F)nc3)cc12 [compound 433]
IC50 (BACE1 [1]; HEK cells, read-out: HEK cell assay): 0.1 to 1 µM
IC50 (BACE1 [2]; read-out: BACE1 FRET assay): < 0.1 µM

Now from value to compound:

IC50 (BACE1 [1]; [3]): < 0.1 µM
IC50 (BACE1 [2]; [4]): < 0.1 µM
SMILES: NC1=N[C@@]2(CO1)c1cc(-c3cccnc3)ccc1Oc1cnc(-c3cccnc3)cc12 [compound 902]

IC50 (BACE1 [1]; [5]): 0.1 to 1 µM
IC50 (BACE1 [2]; [6]): < 0.1 µM
SMILES: C[C@@H]1OC(N)=N[C@@]12c1cc(OCC(C)(C)C)ccc1Oc1ccc(-c3cncnc3)cc12 [126b]

IC50 (BACE1 [1]; [3]): 0.1 to 1 µM
IC50 (BACE1 [2]; [4]): < 0.1 µM
SMILES: CN(C)C(=O)/C=C/c1ccc2c(c1)[C@]1(COC(N)=N1)c1cc(-c3cncnc3)ccc1O2 [compound 917]

IC50 (BACE1 [1]; [3]): < 0.1 µM
IC50 (BACE1 [2]; [4]): < 0.1 µM
SMILES: NC1=N[C@@]2(CO1)c1cc(-c3cccnc3)ccc1Oc1ccc(-c3cnoc3)cc12 [compound 623]

IC50 (BACE1 [1]; read-out: HEK cell assay): 1 to 5 µM
IC50 (BACE1 [2]; read-out: BACE1 FRET assay): < 0.1 µM
SMILES: CC(C)(C)COc1ccc2c(c1)[C@]1(COC(N)=N1)c1cc(-c3cncs3)ccc1O2 [compound 971]

IC50 (BACE1 [1]; [3]): < 0.1 µM
IC50 (BACE1 [2]; [4]): < 0.1 µM
SMILES: NC1=N[C@@]2(CO1)c1cc(-c3cccnc3)ccc1Oc1cnc(C3CCOCC3)cc12 [compound 801]

IC50 (BACE1 [1]; Table II, Aβ40, 24 h incubation, read-out: HEK cell assay): < 0.1 µM
IC50 (BACE1 [2]; Table II, read-out: BACE1 FRET assay): < 0.1 µM
SMILES: NC1=N[C@]2(CO1)c1cc(OCC3CCCC3)ccc1Oc1ccc(-c3cncnc3)cc12 [Example 74, (4S)-2′-(cyclopentylmethoxy)-7′-(5-pyrimidinyl)spiro[1,3-oxazole-4,9′-xanthen]-2-amine]

IC50 (BACE1 [1]; read-out: HEK cell assay): 1 to 5 µM
IC50 (BACE1 [2]; read-out: BACE1 FRET assay): < 0.1 µM
SMILES: CC(C)(C)COc1ccc2c(c1)[C@]1(COC(N)=N1)c1cc(C3CCCC3)ccc1O2 [compound 701]
